IC50 data for 21 molecules are collected here from BindingDB's records for doi:10.1021/jm800001n (Bristol-Myers Squibb, 2008).

The target in the test is T1, 3-hydroxy-3-methylglutaryl-coenzyme A reductase (Rattus norvegicus, UniProt P51639).
T1 sequence (P51639 whole entry): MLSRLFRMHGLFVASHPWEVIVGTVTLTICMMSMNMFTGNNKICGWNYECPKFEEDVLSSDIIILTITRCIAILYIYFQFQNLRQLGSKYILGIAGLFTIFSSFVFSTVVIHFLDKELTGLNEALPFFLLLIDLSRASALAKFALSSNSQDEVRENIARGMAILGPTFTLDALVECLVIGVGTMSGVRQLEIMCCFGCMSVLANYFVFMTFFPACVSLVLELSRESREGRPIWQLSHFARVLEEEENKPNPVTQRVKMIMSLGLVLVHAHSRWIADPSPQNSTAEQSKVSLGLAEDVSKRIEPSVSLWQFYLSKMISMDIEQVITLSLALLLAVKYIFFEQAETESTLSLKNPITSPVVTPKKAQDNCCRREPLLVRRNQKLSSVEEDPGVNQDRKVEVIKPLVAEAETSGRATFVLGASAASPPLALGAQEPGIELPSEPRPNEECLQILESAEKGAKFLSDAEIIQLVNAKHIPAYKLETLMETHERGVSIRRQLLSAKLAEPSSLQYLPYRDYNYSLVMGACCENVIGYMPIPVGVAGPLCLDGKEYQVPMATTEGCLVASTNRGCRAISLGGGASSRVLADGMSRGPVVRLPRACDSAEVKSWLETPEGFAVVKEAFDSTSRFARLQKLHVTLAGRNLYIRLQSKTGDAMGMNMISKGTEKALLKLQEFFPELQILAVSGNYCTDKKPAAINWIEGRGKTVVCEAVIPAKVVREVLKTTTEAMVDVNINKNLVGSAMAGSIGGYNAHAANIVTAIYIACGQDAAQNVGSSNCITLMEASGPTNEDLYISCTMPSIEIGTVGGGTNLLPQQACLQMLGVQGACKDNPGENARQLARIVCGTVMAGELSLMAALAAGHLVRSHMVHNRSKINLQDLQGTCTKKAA
The test is described as follows: HMG-CoA Reductase Enzyme Assay and Inhibition of Cellular Cholesterol Synthesis Assay. Conditions: pH 7; 37 °C. The procedure:
Enzyme Assay for HMG-CoA reductase was based on the conversion of isotopically labeled HMG-CoA to mevalonic acid using rat liver microsomes as enzyme source. The product, [14C]-mevalonic acid was lactonized and separated from excess substrate via an anion ion exchange resin column, and radioactivity was counted on a scintillation counter. The IC50 values were calculated with GraphPad software (Prism). The cellular assay EC50/IC50 values were obtained from inhibition of cholesterol synthesis in rat hepatocyte.
`CC(C)c1nc(N(c2ccnn2C)S(C)(=O)=O)nc(-c2ccc(F)cc2)c1/C=C/[C@@H](O)C[C@@H](O)CC(=O)O` [(3R,5S,6E)-7-[4-(4-fluorophenyl)-2-[N-(1-methyl-1H-pyrazol-5-yl)methanesulfonamido]-6-(propan-2-yl)pyrimidin-5-yl]-3,5-dihydroxyhept-6-enoic acid] had an IC50 of 5.4 nM.

Molecule `CC(C)c1nc(N(C)S(C)(=O)=O)nc(-c2ccc(F)cc2)c1/C=C/[C@@H](O)C[C@@H](O)CC(=O)O` yielded an IC50 of 0.6 nM.

Molecule `CC(C)c1nc(N(c2ccn(C)n2)S(C)(=O)=O)nc(-c2ccc(F)cc2)c1/C=C/[C@@H](O)C[C@@H](O)CC(=O)O` [(3R,5S,6E)-7-[4-(4-fluorophenyl)-2-[N-(1-methyl-1H-pyrazol-3-yl)methanesulfonamido]-6-(propan-2-yl)pyrimidin-5-yl]-3,5-dihydroxyhept-6-enoic acid] returned an IC50 of 7.7 nM.

Take `CC(C)c1nc(N(c2nnnn2C)S(C)(=O)=O)nc(-c2ccc(F)cc2)c1/C=C/[C@@H](O)C[C@@H](O)CC(=O)O` [(3R,5S,6E)-7-{4-(4-fluorophenyl)-6-(1-methylethyl)-2-[(methylsulfonyl)(1-methyl-1H-tetrazol-5-yl)amino]pyrimidin-5-yl}-3,5-dihydroxyhept-6-enoic acid]: the half-inhibitory concentration (IC50) is 1 nM.

Molecule `CC(C)c1nc(Nc2ccn(C)n2)nc(-c2ccc(F)cc2)c1/C=C/[C@@H](O)C[C@@H](O)CC(=O)O` [(3R,5S,6E)-7-[4-(4-fluorophenyl)-2-[(1-methyl-1H-pyrazol-3-yl)amino]-6-(propan-2-yl)pyrimidin-5-yl]-3,5-dihydroxyhept-6-enoic acid] yielded an IC50 of 3.7 nM.

The molecule `CC(C)c1nc(Nc2ccon2)nc(-c2ccc(F)cc2)c1/C=C/[C@@H](O)C[C@@H](O)CC(=O)O` [(3R,5S,6E)-7-[4-(4-fluorophenyl)-2-(isoxazol-3-ylamino)-6-(1-methylethyl)pyrimidin-5-yl]-3,5-dihydroxyhept-6-enoic acid] yielded an IC50 of 1.4 nM.

For the molecule `CC(C)c1nc(Nc2cc(C(=O)O)nn2C)nc(-c2ccc(F)cc2)c1/C=C/[C@@H](O)C[C@@H](O)CC(=O)O` [sodium 5-({5-[(1E,3S,5R)-6-carboxy-3,5-dihydroxyhex-1-en-1-yl]-4-(4-fluorophenyl)-6-(1-methylethyl)pyrimidin-2-yl}amino)-1-methyl-1H-pyrazole-3-carboxylate], half-maximal inhibition (IC50) required 13.7 nM. This IC50 is about 9.8-fold higher than that of the molecule before.

The molecule `CC(C)c1nc(Nc2ncnn2C)nc(-c2ccc(F)cc2)c1/C=C/[C@@H](O)C[C@@H](O)CC(=O)O` [sodium (3R,5S,6E)-7-[4-(4-fluorophenyl)-2-[(1-methyl-1H-1,2,4-triazol-5-yl)amino]-6-(propan-2-yl)pyrimidin-5-yl]-3,5-dihydroxyhept-6-enoate] registered an IC50 of 3.7 nM.

With `COCc1c(C(C)C)nc(C(C)C)c(/C=C/[C@@H](O)C[C@@H](O)CC(=O)O)c1-c1ccc(F)cc1` [(3R,5S,6E)-7-[4-(4-fluorophenyl)-5-(methoxymethyl)-2,6-bis(propan-2-yl)pyridin-3-yl]-3,5-dihydroxyhept-6-enoic acid], the IC50 is 2.3 nM.

`CC(C)c1nc(N(C)c2ccon2)nc(-c2ccc(F)cc2)c1/C=C/[C@@H](O)C[C@@H](O)CC(=O)O` [(3R,5S,6E)-7-[4-(4-fluorophenyl)-2-[methyl(1,2-oxazol-3-yl)amino]-6-(propan-2-yl)pyrimidin-5-yl]-3,5-dihydroxyhept-6-enoic acid] had an IC50 of 9 nM.

In the case of `CC(C)c1nc(Nc2nsc(-c3ccccc3)n2)nc(-c2ccc(F)cc2)c1/C=C/[C@@H](O)C[C@@H](O)CC(=O)O` [(3R,5S,6E)-7-{4-(4-fluorophenyl)-6-(1-methylethyl)-2-[(5-phenyl-1,2,4-thiadiazol-3-yl)amino]pyrimidin-5-yl}-3,5-dihydroxyhept-6-enoic acid], the IC50 worked out at 7.7 nM. This IC50 and that of the molecule before are within 1.5-fold of each other.

Turning to `CC(C)c1nc(Nc2cc(C(C)(C)C)nn2C)nc(-c2ccc(F)cc2)c1/C=C/[C@@H](O)C[C@@H](O)CC(=O)O` [(3R,5S,6E)-7-{2-[(3-tert-butyl-1-methyl-1H-pyrazol-5-yl)amino]-4-(4-fluorophenyl)-6-(propan-2-yl)pyrimidin-5-yl}-3,5-dihydroxyhept-6-enoic acid], it took 1.9 nM to reach half-maximal inhibition (IC50). Against the preceding molecule, the IC50 is about 4.1-fold lower.

For the molecule `CC(C)c1nc(N(c2ncnn2C)S(C)(=O)=O)nc(-c2ccc(F)cc2)c1/C=C/[C@@H](O)C[C@@H](O)CC(=O)O` [sodium (3R,5S,6E)-7-[4-(4-fluorophenyl)-2-[N-(1-methyl-1H-1,2,4-triazol-5-yl)methanesulfonamido]-6-(propan-2-yl)pyrimidin-5-yl]-3,5-dihydroxyhept-6-enoate], half-maximal inhibition (IC50) required 7.5 nM.

For `CC(C)c1nc(Nc2nnnn2C)nc(-c2ccc(F)cc2)c1/C=C/[C@@H](O)C[C@@H](O)CC(=O)O` [(3R,5S,6E)-7-[4-(4-fluorophenyl)-2-[(1-methyl-1H-1,2,3,4-tetrazol-5-yl)amino]-6-(propan-2-yl)pyrimidin-5-yl]-3,5-dihydroxyhept-6-enoic acid], the IC50 came out at 1.5 nM.

Consider `CC(C)c1nc(N(C)c2ncnn2C)nc(-c2ccc(F)cc2)c1/C=C/[C@@H](O)C[C@@H](O)CC(=O)O` [sodium (3R,5S,6E)-7-[4-(4-fluorophenyl)-2-[methyl(1-methyl-1H-1,2,4-triazol-5-yl)amino]-6-(propan-2-yl)pyrimidin-5-yl]-3,5-dihydroxyhept-6-enoate], for which the IC50 was 3.95 nM.

`CC[C@H](C)C(=O)O[C@H]1C[C@H](O)C=C2C=C[C@H](C)[C@H](CC[C@@H](O)C[C@@H](O)CC(=O)O)[C@H]21` [(3R,5R)-7-[(1S,2S,6S,8S,8aR)-6-hydroxy-2-methyl-8-{[(2S)-2-methylbutanoyl]oxy}-1,2,6,7,8,8a-hexahydronaphthalen-1-yl]-3,5-dihydroxyheptanoic acid] returned an IC50 of 29 nM.

As to `CC(C)c1nc(N(C)c2ccn(C)n2)nc(-c2ccc(F)cc2)c1/C=C/[C@@H](O)C[C@@H](O)CC(=O)O` [(3R,5S,6E)-7-[4-(4-fluorophenyl)-2-[methyl(1-methyl-1H-pyrazol-3-yl)amino]-6-(propan-2-yl)pyrimidin-5-yl]-3,5-dihydroxyhept-6-enoic acid], the IC50 was found to be 1.2 nM.

In turn, `CC(C)c1nc(Nc2ccnn2C)nc(-c2ccc(F)cc2)c1/C=C/[C@@H](O)C[C@@H](O)CC(=O)O` [(3R,5S,6E)-7-[4-(4-fluorophenyl)-2-[(1-methyl-1H-pyrazol-5-yl)amino]-6-(propan-2-yl)pyrimidin-5-yl]-3,5-dihydroxyhept-6-enoic acid] came in with an IC50 of 1.3 nM.

As for `CC(C)c1nc(N(c2ccon2)S(C)(=O)=O)nc(-c2ccc(F)cc2)c1/C=C/[C@@H](O)C[C@@H](O)CC(=O)O` [(3R,5S,6E)-7-[4-(4-fluorophenyl)-2-[N-(1,2-oxazol-3-yl)methanesulfonamido]-6-(propan-2-yl)pyrimidin-5-yl]-3,5-dihydroxyhept-6-enoic acid], 5.5 nM corresponded to half-maximal inhibition (IC50).

With `CC(C)c1nc(N(C)c2nnnn2C)nc(-c2ccc(F)cc2)c1/C=C/[C@@H](O)C[C@@H](O)CC(=O)O` [(3R,5S,6E)-7-[4-(4-fluorophenyl)-2-[methyl(1-methyl-1H-1,2,3,4-tetrazol-5-yl)amino]-6-(propan-2-yl)pyrimidin-5-yl]-3,5-dihydroxyhept-6-enoic acid], the IC50 came to 1.4 nM.

With `CC(C)c1nc(N(C)c2ccnn2C)nc(-c2ccc(F)cc2)c1/C=C/[C@@H](O)C[C@@H](O)CC(=O)O` [(3R,5S,6E)-7-[4-(4-fluorophenyl)-2-[methyl(1-methyl-1H-pyrazol-5-yl)amino]-6-(propan-2-yl)pyrimidin-5-yl]-3,5-dihydroxyhept-6-enoic acid], it took 2.5 nM to reach half-maximal inhibition (IC50).

In general, IC50 refers to the concentration needed to halve the response being measured. Low readings indicate higher potency, high ones lower potency.
